Data as given in BindingDB's records for doi:10.1021/acs.jmedchem.6b01785 (Chinese Academy of Sciences, 2017).

Tests used:
[1] = Inhibition of DOT1L in human MV4-11 cells assessed as reduction in cell viability after 72 hrs by alamar blue assay
[2] = Inhibition of DOT1L in human THP-1 cells assessed as reduction in cell viability after 72 hrs by alamar blue assay
[3] = Inhibition of DOT1L in human KOPN8 cells assessed as reduction in cell viability after 72 hrs by alamar blue assay

SMILES	IC50 [1] [µM]	IC50 [2] [µM]	IC50 [3] [µM]
COc1cccc(-c2nn3c(Cn4nnc5ccccc54)nnc3s2)c1	64.2		
Cc1ccc(-c2nn3c(Cn4cnc5ccccc54)nnc3s2)cc1C	64		
c1ccc2c(c1)nnn2Cc1nnc2sc(-c3ccc4c(c3)OCO4)nn12	6.75		
c1ccc2c(c1)nnn2Cc1nnc2sc(-c3ccc4c(c3)OCCO4)nn12 [1-{[6-(2,3-dihydro-1,4-benzodioxin-6-yl)[1,2,4]triazolo[3,4-b][1,3,4]thiadiazol-3-yl]methyl}-1H-1,2,3-benzotriazole]	40.7		
CC(C)(C)c1ccc(-c2nn3c(Cn4nnc5ccccc54)nnc3s2)cc1	13.1		
Fc1cccc(-c2nn3c(Cn4nnc5ccccc54)nnc3s2)c1	21.9	55.8	28.1
Brc1cccc(-c2nn3c(Cn4cnc5ccccc54)nnc3s2)c1	26.8		
c1ccc(Cc2nn3c(Cn4nnc5ccccc54)nnc3s2)cc1 [3-(1-benzotriazolylmethyl)-6-(phenylmethyl)-[1,2,4]triazolo[3,4-b][1,3,4]thiadiazole]	48.8		
Fc1ccc(-c2nn3c(Cn4nnc5ccccc54)nnc3s2)cc1	8		
